Source: patent US10407467B2, “Polymyxin derivatives and their use in combination therapy together with different antibiotics” (priority 2013, dated 2019)
Bridge positions count the residues as written; N and C are the ends. Square brackets hold non-standard residues; d marks the D form. Peptide text beside a SMILES is read from it. * marks the point of attachment. ξ: configuration not given here. ξβ3hGly(cHex) = NC(CC(=O)*)C1CCCCC1; Thr(3ξ) = CC(O)[C@H](N)C(=O)O; Dab = NCC[C@H](N)C(=O)O

Key:
Test in all cases: MIC, compound in combination with a second agent (broth microdilution)
Format in all cases: cell-based
Escherichia coli = system: Escherichia coli
How it was run: (§1)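 MIC = combined concentration of test compound plus partner agent, mixed at equal mass (1:1 w/w, salt form as used). Up to four strains per species; colonies adjusted to 0.5 McFarland. Run in duplicate; >2-fold disagreement invalidates the run.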

Pseudomonas aeruginosa = system: Pseudomonas aeruginosa
How it was run: as §1

Acinetobacter baumannii = system: Acinetobacter baumannii
How it was run: as §1

Klebsiella pneumoniae = system: Klebsiella pneumoniae
How it was run: as §1

[1] = 1:1 combination with Aztreonam, total drug concentration
[2] = 1:1 combination with Ciprofloxacin, total drug concentration
[3] = 1:1 combination with Tigecycline, total drug concentration
[4] = 1:1 combination with Vancomycin, total drug concentration
[5] = 1:1 combination with Ciprofloxacin (by row order), total drug concentration
[6] = Ratio of Compound to Rifampicin 1:1, total drug concentration
[7] = Ratio of Compound to Rifampicin 1:3, total drug concentration

CC(C)C[C@@H]1NC(=O)[C@@H](Cc2ccccc2)NC(=O)[C@H](CCN)NC(=O)[C@@H](NC(=O)[C@H](CCN)NC(=O)[C@@H](NC(=O)CC(N)C2CCCCC2)C(C)O)CCNC(=O)[C@H](C(C)O)NC(=O)[C@H](CCN)NC(=O)[C@H](CCN)NC1=O (stereo partly drawn) [Example 10, [3(R,S)-3-Amino-3-cyclohexane-propanoyl]Polymyxin B nonapeptide] ({ξβ3hGly(cHex)}-[Thr(3ξ)][Dab][Dab][Dab][dF]L[Dab][Dab][Thr(3ξ)]; lactam 3-C)
MIC E. coli ATCC25922 (Escherichia coli; 1:1 (wt:wt) combination with Rifampicin, MIC = total drug concentration, strain ATCC25922): 0.125 micrograms/mL | MIC E. coli NCTC9001 (Escherichia coli; 1:1 (wt:wt) combination with Rifampicin, MIC = total drug concentration, strain NCTC9001): 0.125 micrograms/mL | MIC E. coli ATCC25922 (Escherichia coli; [1]): 0.125 micrograms/mL | MIC E. coli NCTC 13441 (Escherichia coli; [1]): 2 micrograms/mL | MIC E. coli ATCC25922 (Escherichia coli; [2]): ≤0.06 micrograms/mL | MIC E. coli CCUG 59342 (Escherichia coli; [2]): 1 micrograms/mL | MIC E. coli NCTC9001 (Escherichia coli; [2]): ≤0.06 micrograms/mL | MIC E. coli NCTC9001 (Escherichia coli; [3]): 8 micrograms/mL | MIC E. coli NCTC9001 (Escherichia coli; [4]): 16 microgram/mL | MIC E. coli ATCC25922 (Escherichia coli; E. coli ATCC25922, 1:1 combination with Azithromycin, total drug concentration): 0.125 micrograms/mL | MIC E. coli ATCC25922 (Escherichia coli; E. coli ATCC25922, 1:1 combination with Fusidic acid, total drug concentration): 1 micrograms/mL | MIC E. coli ATCC25922 (Escherichia coli; E. coli ATCC25922, 1:1 combination with Novobiocin, total drug concentration): 0.5 micrograms/mL | MIC E. coli ATCC25922 (Escherichia coli; E. coli ATCC25922, 1:1 combination with Oxacillin, total drug concentration): 8 micrograms/mL | MIC E. coli NCTC9001 (Escherichia coli; E. coli NCTC9001, 1:1 combination with Meropenem, total drug concentration): 0.5 micrograms/mL | MIC E. coli NCTC 13441 (Escherichia coli; E. coli NCTC 13441, 1:1 combination with Azithromycin, total drug concentration): 2 micrograms/mL | MIC E. coli NCTC 13441 (Escherichia coli; E. coli NCTC 13441, 1:1 combination with Novobiocin, total drug concentration): 0.5 micrograms/mL | MIC P. aeruginosa ATCC 27853 (Pseudomonas aeruginosa; 1:1 (wt:wt) combination with Rifampicin, MIC = total drug concentration, strain ATCC 27853): 1 micrograms/mL | MIC P. aeruginosa ATCC-47 (Pseudomonas aeruginosa; 1:1 (wt:wt) combination with Rifampicin, MIC = total drug concentration, strain ATCC-47): 0.25 micrograms/mL | MIC P. aeruginosa CCUG 59626 (Pseudomonas aeruginosa; 1:1 (wt:wt) combination with Rifampicin, MIC = total drug concentration, strain CCUG 59626): 0.25 micrograms/mL | MIC P. aeruginosa ATCC 10145 (Pseudomonas aeruginosa; [1]): 1 micrograms/mL | MIC P. aeruginosa ATCC 27853 (Pseudomonas aeruginosa; [5]): 0.125 micrograms/mL | MIC P. aeruginosa CCUG 59626 (Pseudomonas aeruginosa; [5]): 0.5 micrograms/mL | MIC P. aeruginosa CCUG 59626 (Pseudomonas aeruginosa; [3]): 1 micrograms/mL | MIC P. aeruginosa ATCC 10145 (Pseudomonas aeruginosa; P. aeruginosa ATCC 10145, 1:1 combination with Azithromycin, total drug concentration): 1 micrograms/mL | MIC P. aeruginosa ATCC 10145 (Pseudomonas aeruginosa; P. aeruginosa ATCC 10145, 1:1 combination with Novobiocin, total drug concentration): 0.5 micrograms/mL | MIC A. baumannii ATCC BAA-747 (Acinetobacter baumannii; 1:1 (wt:wt) combination with Rifampicin, MIC = total drug concentration, strain ATCC BAA-747): 0.25 micrograms/mL | MIC A. baumannii CCUG57249 (Acinetobacter baumannii; 1:1 (wt:wt) combination with Rifampicin, MIC = total drug concentration, strain CCUG57249): 0.125 micrograms/mL | MIC A. baumannii NCTC 13423 (Acinetobacter baumannii; 1:1 (wt:wt) combination with Rifampicin, MIC = total drug concentration, strain NCTC 13423): 0.125 micrograms/mL | MIC A. baumannii NCTC 13424 (Acinetobacter baumannii; 1:1 (wt:wt) combination with Rifampicin, MIC = total drug concentration, strain NCTC 13424): 0.125 micrograms/mL | MIC A. baumannii NCTC 13424 (Acinetobacter baumannii; [1]): 1 micrograms/mL | MIC A. baumannii NCTC 13424 (Acinetobacter baumannii; [5]): 0.5 micrograms/mL | MIC A. baumannii NCTC 13424 (Acinetobacter baumannii; A. baumannii NCTC 13424, 1:1 combination with Azithromycin, total drug concentration): 1 micrograms/mL | MIC K. pneumoniae ATCC 4352 (Klebsiella pneumoniae; 1:1 (wt:wt) combination with Rifampicin, MIC = total drug concentration, strain ATCC 4352): ≤0.06 micrograms/mL | MIC K. pneumoniae ATCC-BAA-2146 (Klebsiella pneumoniae; 1:1 (wt:wt) combination with Rifampicin, MIC = total drug concentration, strain ATCC-BAA-2146): 0.5 micrograms/mL | MIC K. pneumoniae CCUG-59348 (Klebsiella pneumoniae; 1:1 (wt:wt) combination with Rifampicin, MIC = total drug concentration, strain CCUG-59348): 1 micrograms/mL | MIC K. pneumoniae NCTC 13438 (Klebsiella pneumoniae; 1:1 (wt:wt) combination with Rifampicin, MIC = total drug concentration, strain NCTC 13438): 0.5 micrograms/mL | MIC K. pneumoniae ATCC 4352 (Klebsiella pneumoniae; [1]): ≤0.06 micrograms/mL | MIC K. pneumoniae CCUG 59349 (Klebsiella pneumoniae; [1]): 4 micrograms/mL | MIC K. pneumoniae ATCC 4352 (Klebsiella pneumoniae; [5]): ≤0.06 micrograms/mL | MIC K. pneumoniae ATCC BAA-1706 (Klebsiella pneumoniae; [5]): 0.25 micrograms/mL | MIC K. pneumoniae CCUG 59348 (Klebsiella pneumoniae; [2]): 32 micrograms/mL | MIC K. pneumoniae NCTC 13442 (Klebsiella pneumoniae; [2]): 1 micrograms/mL | MIC K. pneumoniae CCUG 59348 (Klebsiella pneumoniae; [3]): >32 micrograms/mL | MIC K. pneumoniae NCTC 13442 (Klebsiella pneumoniae; [3]): 16 micrograms/mL | MIC K. pneumoniae CCUG 59348 (Klebsiella pneumoniae; [4]): >32 microgram/mL | MIC K. pneumoniae NCTC 13442 (Klebsiella pneumoniae; [4]): 4 microgram/mL | MIC K. pneumoniae ATCC 4352 (Klebsiella pneumoniae; K. pneumoniae ATCC4352, 1:1 combination with Azithromycin, total drug concentration): 0.125 micrograms/mL | MIC K. pneumoniae ATCC 4352 (Klebsiella pneumoniae; K. pneumoniae ATCC4352, 1:1 combination with Fusidic acid, total drug concentration): 0.5 micrograms/mL | MIC K. pneumoniae ATCC 4352 (Klebsiella pneumoniae; K. pneumoniae ATCC4352, 1:1 combination with Novobiocin, total drug concentration): 0.125 micrograms/mL | MIC K. pneumoniae ATCC BAA-1706 (Klebsiella pneumoniae; K. pneumoniae ATCC BAA-1706, 1:1 combination with Meropenem, total drug concentration): 4 micrograms/mL | MIC K. pneumoniae CCUG 59348 (Klebsiella pneumoniae; K. pneumoniae CCUG 59348, 1:1 combination with Meropenem, total drug concentration): >32 micrograms/mL | MIC K. pneumoniae CCUG 59349 (Klebsiella pneumoniae; K. pneumoniae CCUG 59349, 1:1 combination with Azithromycin, total drug concentration): 4 micrograms/mL | MIC K. pneumoniae CCUG 59349 (Klebsiella pneumoniae; K. pneumoniae CCUG 59349, 1:1 combination with Novobiocin, total drug concentration): 1 micrograms/mL | MIC K. pneumoniae NCTC 13442 (Klebsiella pneumoniae; K. pneumoniae NCTC 13442, 1:1 combination with Meropenem, total drug concentration): 16 micrograms/mL | MIC K. pneumoniae ATCC-BAA-2146 (Klebsiella pneumoniae; [6]): 0.5 micrograms/mL | MIC K. pneumoniae CCUG-59348 (Klebsiella pneumoniae; [6]): 1 micrograms/mL | MIC K. pneumoniae NCTC 13438 (Klebsiella pneumoniae; [6]): 0.5 micrograms/mL | MIC K. pneumoniae ATCC-BAA-2146 (Klebsiella pneumoniae; [7]): 0.5 micrograms/mL | MIC K. pneumoniae CCUG-59348 (Klebsiella pneumoniae; [7]): 1 micrograms/mL | MIC K. pneumoniae NCTC 13438 (Klebsiella pneumoniae; [7]): 0.5 micrograms/mL
